# Source: ChEMBL document CHEMBL1158428, “The influence of double bond geometry in the inhibition of cyclooxygenases by sulindac derivatives” (Bioorg Med Chem Lett, 2009)
# Active and inactive are the calls of the source. The calls are words filed in the database; no cut-off is given here.
# What was measured:
# [1] = target: T1, Prostaglandin G/H synthase 1 (Ovis aries) (UniProt P05979); conditions: 115 nM
# T1 sequence (whole entry): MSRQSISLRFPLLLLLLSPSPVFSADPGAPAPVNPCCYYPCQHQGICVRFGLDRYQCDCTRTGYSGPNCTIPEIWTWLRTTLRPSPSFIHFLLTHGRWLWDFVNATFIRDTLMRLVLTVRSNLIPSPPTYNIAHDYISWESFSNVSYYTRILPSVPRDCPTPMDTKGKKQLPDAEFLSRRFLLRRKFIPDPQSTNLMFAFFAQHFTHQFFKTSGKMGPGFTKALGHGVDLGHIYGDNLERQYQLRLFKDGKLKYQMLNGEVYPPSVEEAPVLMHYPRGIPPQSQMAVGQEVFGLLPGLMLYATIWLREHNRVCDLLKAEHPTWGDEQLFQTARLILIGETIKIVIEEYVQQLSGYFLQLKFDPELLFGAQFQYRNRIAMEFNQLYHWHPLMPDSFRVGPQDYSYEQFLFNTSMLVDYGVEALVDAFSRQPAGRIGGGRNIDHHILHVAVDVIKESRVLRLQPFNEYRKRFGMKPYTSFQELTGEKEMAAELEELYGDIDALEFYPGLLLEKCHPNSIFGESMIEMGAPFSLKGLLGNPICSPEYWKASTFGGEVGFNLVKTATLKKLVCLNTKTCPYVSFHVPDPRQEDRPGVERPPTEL
# Description: Inhibition of ovine COX1 under saturated substrate level preincubated at 115 nM for 17 mins by TLC
# [2] = target: T2, Prostaglandin G/H synthase 2 (Homo sapiens) (UniProt P35354); experiment: Inhibition of COX2
# T2 sequence (whole entry): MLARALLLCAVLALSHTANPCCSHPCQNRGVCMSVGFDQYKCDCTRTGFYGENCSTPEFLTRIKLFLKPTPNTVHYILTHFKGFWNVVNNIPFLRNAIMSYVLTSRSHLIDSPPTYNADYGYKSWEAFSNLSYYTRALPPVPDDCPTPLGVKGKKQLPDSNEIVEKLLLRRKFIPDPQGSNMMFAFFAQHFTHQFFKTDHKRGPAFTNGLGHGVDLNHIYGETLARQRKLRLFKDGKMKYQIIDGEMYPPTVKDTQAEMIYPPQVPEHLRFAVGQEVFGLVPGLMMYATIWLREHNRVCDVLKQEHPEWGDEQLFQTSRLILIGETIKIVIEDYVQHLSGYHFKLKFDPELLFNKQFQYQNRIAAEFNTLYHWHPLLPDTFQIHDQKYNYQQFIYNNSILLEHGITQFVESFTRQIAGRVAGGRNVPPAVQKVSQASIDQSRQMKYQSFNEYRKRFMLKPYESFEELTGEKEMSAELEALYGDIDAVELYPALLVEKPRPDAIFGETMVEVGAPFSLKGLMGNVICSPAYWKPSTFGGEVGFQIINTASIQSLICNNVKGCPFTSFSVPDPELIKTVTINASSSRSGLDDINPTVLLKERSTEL
inhibition [1] [%],Activity [2],Structure (SMILES)
20,–,CSc1ccc(/C=C2/C=C(CC(=O)O)c3cc(F)ccc32)cc1
–,inactive,COc1ccc2c(c1)c(CC(=O)O)cn2C(=O)c1ccc(Cl)cc1
75,–,CSc1ccc(/C=C2/C(C)=C(CC(=O)O)c3cc(F)ccc32)cc1
